Test results: ChEMBL document CHEMBL5725391, “1,3-diaminocyclopentane carboxamide derivatives” (2017)

Biological target: Fatty acid synthase (Homo sapiens, UniProt P49327)
Test: Biochemical Assay of FASN: The biochemical FASN activity testing was performed as 384 well two-time-point kinetic fluorescence intensity assay format in Greiner low volume medium binding 384-well black microtiter plates in a total assay volume of 8 μl and was used for high throughput screen. In each well 3 μl 40 nM human recombinant full-length fatty acid synthase (produced in-house in SF9 cells) were dispensed in the following assay buffer: 50 mM potassium phosphate buffer pH 7.0, 0.005% (w/v) BSA, 2 mM Glutathione, 0.02% Tween-20. Then 2 μl of 200 μM NADPH in assay buffer were added, followed by the addition of the test compounds in 10 dilution concentrations starting with 30 μM (final concentration) to get a final DMSO content of 1% (v/v). The mixture was incubated for at least 15 min at room temperature. After the pre-incubation the enzymatic reaction was started by the addition of 2 μl substrate solution (80 μM acetyl-CoA, 240 μM malonyl-CoA). A first fluorescence intensity measurement (time point one) was performed with an Envision multimode reader (Perkin Elmer LAS Germany GmbH) at excitation wavelength 340 nm (lamp mode) and emission wavelength 460 nm. The reaction was incubated for 30 minutes at room temperature. After this the fluorescence intensity was measured again in the Envision using the same parameters as described above (second time point measurement). The data were analysed by subtracting the first time point measurement value from the second time point measurement value (after the enzymatic reaction). The differences of the emission signals were determined. These reflect directly the conversion rate of NADPH. The full value used was the inhibitor-free reaction. A pharmacological zero value was used like GSK837149A (Sigma-Aldrich) in a final concentration of 5-10 μM. The inhibitory values (IC50) were determined using either the program Symyx Assay Explorer® or Condosseo® from GeneData.

Fatty acid synthase, sequence (P49327 whole entry): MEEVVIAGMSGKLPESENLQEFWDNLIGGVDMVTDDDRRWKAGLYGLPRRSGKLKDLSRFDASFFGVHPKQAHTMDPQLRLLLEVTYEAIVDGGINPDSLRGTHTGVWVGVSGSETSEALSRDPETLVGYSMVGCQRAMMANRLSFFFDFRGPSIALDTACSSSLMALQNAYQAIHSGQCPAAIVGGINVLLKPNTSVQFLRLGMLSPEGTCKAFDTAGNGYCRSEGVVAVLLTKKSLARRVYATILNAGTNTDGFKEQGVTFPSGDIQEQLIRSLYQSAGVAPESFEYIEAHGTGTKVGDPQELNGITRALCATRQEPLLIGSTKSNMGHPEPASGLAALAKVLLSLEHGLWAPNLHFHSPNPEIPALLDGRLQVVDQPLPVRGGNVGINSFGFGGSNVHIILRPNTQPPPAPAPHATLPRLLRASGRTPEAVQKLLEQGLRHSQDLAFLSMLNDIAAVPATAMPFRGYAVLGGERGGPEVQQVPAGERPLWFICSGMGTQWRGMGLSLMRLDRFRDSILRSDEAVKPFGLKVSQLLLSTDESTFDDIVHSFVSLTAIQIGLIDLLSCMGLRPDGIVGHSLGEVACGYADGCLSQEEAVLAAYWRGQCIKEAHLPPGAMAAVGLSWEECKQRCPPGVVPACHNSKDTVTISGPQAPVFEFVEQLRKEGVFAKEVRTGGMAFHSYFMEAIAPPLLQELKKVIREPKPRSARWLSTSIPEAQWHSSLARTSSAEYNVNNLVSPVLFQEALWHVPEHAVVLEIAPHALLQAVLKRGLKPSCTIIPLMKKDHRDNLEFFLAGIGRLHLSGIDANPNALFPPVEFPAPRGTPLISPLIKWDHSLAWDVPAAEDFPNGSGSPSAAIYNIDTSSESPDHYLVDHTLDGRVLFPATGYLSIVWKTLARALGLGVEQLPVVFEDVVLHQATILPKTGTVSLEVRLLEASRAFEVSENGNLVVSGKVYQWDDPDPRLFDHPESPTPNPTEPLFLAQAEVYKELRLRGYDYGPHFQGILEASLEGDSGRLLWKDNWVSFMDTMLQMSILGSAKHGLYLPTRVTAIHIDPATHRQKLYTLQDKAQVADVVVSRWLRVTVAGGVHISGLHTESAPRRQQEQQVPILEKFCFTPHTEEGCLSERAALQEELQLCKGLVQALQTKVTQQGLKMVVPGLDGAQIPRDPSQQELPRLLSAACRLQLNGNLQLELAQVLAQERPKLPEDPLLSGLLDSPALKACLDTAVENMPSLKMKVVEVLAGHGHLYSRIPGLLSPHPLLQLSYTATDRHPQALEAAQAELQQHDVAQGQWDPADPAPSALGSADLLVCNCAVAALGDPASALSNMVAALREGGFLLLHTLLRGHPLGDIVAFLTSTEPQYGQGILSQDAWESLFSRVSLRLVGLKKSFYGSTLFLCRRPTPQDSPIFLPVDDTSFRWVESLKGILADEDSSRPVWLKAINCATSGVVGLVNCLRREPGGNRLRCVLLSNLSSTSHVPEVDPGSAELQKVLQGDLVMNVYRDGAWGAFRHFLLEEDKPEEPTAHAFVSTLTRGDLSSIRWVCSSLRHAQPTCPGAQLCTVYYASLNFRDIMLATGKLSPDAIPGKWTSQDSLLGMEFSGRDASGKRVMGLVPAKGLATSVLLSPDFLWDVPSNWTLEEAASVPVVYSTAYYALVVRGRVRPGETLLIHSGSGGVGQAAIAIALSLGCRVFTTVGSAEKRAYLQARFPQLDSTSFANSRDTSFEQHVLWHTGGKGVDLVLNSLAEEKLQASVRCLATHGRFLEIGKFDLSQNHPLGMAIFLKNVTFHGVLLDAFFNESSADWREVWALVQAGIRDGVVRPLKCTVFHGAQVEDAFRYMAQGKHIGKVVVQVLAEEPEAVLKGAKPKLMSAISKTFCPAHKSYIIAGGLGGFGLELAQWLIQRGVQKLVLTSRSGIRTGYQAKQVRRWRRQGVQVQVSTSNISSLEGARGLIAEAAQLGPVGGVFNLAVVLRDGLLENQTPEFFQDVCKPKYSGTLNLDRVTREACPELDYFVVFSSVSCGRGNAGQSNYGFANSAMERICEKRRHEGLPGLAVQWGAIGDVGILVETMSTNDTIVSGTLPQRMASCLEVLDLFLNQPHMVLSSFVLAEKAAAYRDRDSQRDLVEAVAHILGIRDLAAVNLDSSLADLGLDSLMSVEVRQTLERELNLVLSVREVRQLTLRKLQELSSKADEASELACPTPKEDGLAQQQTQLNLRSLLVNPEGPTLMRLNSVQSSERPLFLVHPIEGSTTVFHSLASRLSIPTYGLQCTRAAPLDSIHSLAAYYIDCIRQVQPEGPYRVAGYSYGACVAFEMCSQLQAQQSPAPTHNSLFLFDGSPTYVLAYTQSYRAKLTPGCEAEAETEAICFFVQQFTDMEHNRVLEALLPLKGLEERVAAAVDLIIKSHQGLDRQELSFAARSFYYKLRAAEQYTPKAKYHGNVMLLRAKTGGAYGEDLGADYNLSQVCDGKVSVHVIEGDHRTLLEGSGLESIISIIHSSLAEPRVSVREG

Structure (SMILES) | IC50
CCC(=O)N[C@H]1CC[C@@H](N(C)C(=O)c2ccc(-c3cc(F)c4[nH]cc(C(N)=O)c4c3)cc2)C1 | < 300 nM
CN(C(=O)c1ccc(-c2nc3ccccc3o2)cc1F)[C@@H]1CC[C@H](NC(=O)[C@@H]2CCCO2)C1 | < 300 nM
CCC(=O)N[C@H]1CC[C@@H](N(C)C(=O)c2cnc(-c3ccc4[nH]ccc4c3)s2)C1 | < 300 nM
CCC(=O)N[C@H]1CC[C@@H](N(C)C(=O)c2sc(-c3ccc4[nH]ccc4c3)nc2C)C1 | < 300 nM

More lines, now with the values ahead:

IC50 | Structure (SMILES)
< 300 nM | CCC(=O)N[C@H]1CC[C@@H](N(C)C(=O)c2ccc(-c3ccc4[nH]cc(F)c4c3)nc2)C1
< 300 nM | CCC(=O)N[C@H]1CC[C@@H](N(C)C(=O)c2ccc(-c3ccc(C#N)cc3F)cc2)C1
< 300 nM | CCC(=O)N[C@H]1CC[C@@H](N(C)C(=O)c2ccc(-c3cccc4[nH]ncc34)cc2)C1
